Positions of bridges follow the written chain, without caps; N, C: chain ends. Residues, ends and D or L forms follow the SMILES beside them.
Key:
[1] = target: T1, human Growth Hormone Receptor (hGHR) (Homo sapiens, UniProt P10912); test: Growth Hormone proliferation assay (hGH-stimulated BaF3 cell proliferation, MTT); assay type: cell-based; conditions: inhibition of BaF3 cell proliferation in response to 0.5 ng/mL hGH; read-out: calculated Ki
T1 construct: expressed in transfected cells; host or cells: BaF-B03 (BaF3) pro-B cells
T1 sequence (P10912 19-638): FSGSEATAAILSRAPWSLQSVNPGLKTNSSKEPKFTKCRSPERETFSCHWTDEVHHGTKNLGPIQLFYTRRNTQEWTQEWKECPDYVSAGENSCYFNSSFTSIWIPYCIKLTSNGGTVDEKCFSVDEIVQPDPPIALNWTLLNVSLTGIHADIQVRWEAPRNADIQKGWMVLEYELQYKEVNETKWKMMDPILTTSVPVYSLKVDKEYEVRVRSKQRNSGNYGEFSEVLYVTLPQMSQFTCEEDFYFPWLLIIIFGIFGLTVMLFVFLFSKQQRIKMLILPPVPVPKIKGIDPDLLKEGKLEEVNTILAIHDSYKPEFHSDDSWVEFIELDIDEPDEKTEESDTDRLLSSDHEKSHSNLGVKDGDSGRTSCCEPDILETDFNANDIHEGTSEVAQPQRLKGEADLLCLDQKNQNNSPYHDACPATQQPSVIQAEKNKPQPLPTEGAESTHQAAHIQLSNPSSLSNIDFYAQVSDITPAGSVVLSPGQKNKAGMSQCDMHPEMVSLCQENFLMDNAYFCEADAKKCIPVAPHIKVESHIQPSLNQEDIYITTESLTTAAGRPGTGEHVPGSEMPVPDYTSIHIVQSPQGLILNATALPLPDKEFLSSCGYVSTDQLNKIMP
Method: SCY01 was tested for biological function by bioassay using the BaF3 cell line, which cells normally respond to GH. SCY01 was assayed at various concentrations to check its ability to inhibit BaF3 cell proliferation in response to either 0.5 ng/mL hGH, or as a control, 50 Units/mL IL-3.
BaF-B03 cells (a pro B cell line) that stably express the human Growth Hormone Receptor (hGHR) are used in this assay since they are able to elicit a GH-specific response at concentrations as low as 0.1 ng/mL hGH (4.54 pM). These cells also endogenously express the IL3 receptor and require IL3 or GM-CSF to survive in culture. The assay is based on that of Mossman, 1983, J. Immunol. Meth. 65 55, and involves the following procedure:— • (i) culture cells in RPMI-1640 medium supplemented with 10% (v/v) foetal bovine serum (FBS) and 100 units/mL IL3 under 5% CO2 at 37° C. Allow the culture to reach mid-log growth phase; • (ii) centrifuge cells at 500×g and wash with PBS to remove IL3 from the culture medium. Repeat the centrifugation and resuspend in 1 mL of RPMI-1640 plus 0.5% (v/v) FBS. […] Allow plate to rest in the dark for 5 minutes before reading; • (x) read plate at 595 nm on a microplate reader. Values obtained are directly proportional to cell number (as measured by mitochondrial dehydrogenase levels).

α-chymotrypsin = test: Enzyme stability test, chymotrypsin; assay type: in vitro ADME; conditions: chymotrypsin 5% w:v, NH4HCO3 pH 8.3, 37° C.
Method: To the stock peptide solution (100 μL) was added 900 μL NH4HCO3 (pH 8.3). Chymotrypsin was added to 5% w:v and incubated at 37° C. Aliquots were removed at 0 hr, 1 hr and 24 hrs and analysed by RP HPLC.

pepsin = test: Enzyme stability test, pepsin; assay type: in vitro ADME; conditions: pepsin 1% w:v, pH 2.2, 37° C.
Method: To the stock peptide solution (100 μL) was added H2O (800 μL) and 0.1 M HCl (100 μL) to pH 2.2. Pepsin was added to give a 1% w:v solution and incubated at 37° C. Aliquots were removed at 0 h, 1 h and 24 hrs and analysed by RP-HPLC.

[2] = Blood serum stability test (RP-HPLC); assay type: in vitro ADME; conditions: 37° C.
Text: Preliminary studies evaluated the bioavailability of SCY01 by exposing it to a variety of proteases (trypsin, chymotrypsin and pepsin) and blood serum proteins as described in MATERIALS AND METHODS. The results of the blood serum stability test are presented in Table 2, and the results of the enzyme stability tests are presented in Table 3. […] Thus emphasising the favourable chemical characteristics of disulfide-rich proteins.
Blood was collected in heparinised tubes by venapuncture. The blood was centrifuged at 5000 rpm for 20 mins and the serum decanted. The blood serum was stored at −20° C. A sample of the blood serum (900 μL) was incubated with 100 μL of the stock peptide solution (1 mg/mL in H2O) at 37° C. and aliquots (100 μL) removed at the required time. A solution of 50% CH3CN 0.1% TFA was added to precipitate the blood serum proteins and centrifuged at 13000 rpm for 5 mins. A sample of this solution (100 μL) was analysed by RP-HPLC (Vydac C18 218TP54 250×4.1 mm id 1%/min gradient H2O/CH3CN 0.1% TFA) to detect peptide digestion.

trypsin = test: Enzyme stability test, trypsin; assay type: in vitro ADME; conditions: trypsin 5% w:v, NH4HCO3 pH 8.3, 37° C.
Method: To the peptide solution (NH4HCO3, pH 8.3, 0.87 mg/mL) was added trypsin (5% w:v). Samples were incubated at 37° C. and aliquots removed at 0, 1, 3 and 18 hrs and analysed by RP-HPLC as above.

Q: For `CC[C@H](C)[C@@H]1NC(=O)[C@@H]2CSSC[C@H](NC(=O)[C@H](Cc3ccccc3)NC(=O)[C@H](C)N)C(=O)N[C@@H](CC(N)=O)C(=O)N[C@@H](CC(C)C)C(=O)N[C@@H](CCCNC(=N)N)C(=O)N[C@@H](CCCCN)C(=O)N[C@H]3CSSC[C@H](NC(=O)[C@H](CCCCN)NC(=O)[C@H](CC(=O)O)NC(=O)CNC1=O)C(=O)N[C@@H](CCC(=O)O)C(=O)N[C@H](C(=O)N[C@H](C(=O)N[C@@H](CCCCN)C(N)=O)C(C)C)CSSC[C@H](NC(=O)[C@H](CCCCN)NC(=O)[C@H](CC(=O)O)NC(=O)[C@H](CCC(N)=O)NC3=O)C(=O)N[C@@H](CCC(=O)O)C(=O)N[C@@H]([C@@H](C)O)C(=O)N[C@@H](Cc1ccccc1)C(=O)NCC(=O)N[C@@H](CC(C)C)C(=O)N[C@@H](CC(C)C)C(=O)NCC(=O)N[C@@H](CCCCN)C(=O)N2` [SCY01] (H-AFCNLRKCQDKCETFGLLGKCIGDKCECVK-NH2; disulfide 3-21, 8-26, 12-28), which Ki [1] is on record?
A: ~200 µM

Q: And the “Enzyme stability test result, α-chymotrypsin” value (α-chymotrypsin)?
A: Stable over 18 hrs

Q: And the “Enzyme stability test result, pepsin” value (pepsin)?
A: Stable over 18 hrs

Q: And the “Blood serum stability test result, 0 hr” value ([2]; 0 hr)?
A: stable

Q: And the “Blood serum stability test result, 1 hr” value ([2]; 1 hr)?
A: stable

Q: What about the “Blood serum stability test result, 24 hrs” value ([2]; 24 hrs) of the same compound?
A: stable

Q: What about the “Enzyme stability test result, trypsin” value (trypsin) of the same compound?
A: Stable over 18 hrs

— patent US7092825B1, “Protein engineering” (The University of Queensland, priority 1998, dated 2006)
